# In PMC10328330 (PLOS ONE, 2023):
# Assays:
# mice = tested on: mice; parameters: method as in PMID 23791825; conditions: cited from earlier work
# T. gondii (ME49 strain) = experiment: Efficacy in mice chronically infected with T. gondii (brain cysts, qPCR parasite burden); assay type: in vivo, Toxoplasma gondii; conditions: C57BL/6 mice chronically infected with ME49
# Experimental: Chronic infection in Male C57/BL/6 mice (4 weeks-old) was obtained by intraperitoneal injection of brain tissue cysts (ME49 strain) as previously described. The cysts were obtained by directly macerating the brain tissue of previously chronically infected mice in 5 mL of saline solution. The resulting mixture was then subjected to a counting procedure using a Neubauer chamber under a microscope to determine the concentration of the cysts. To prepare the cysts for injection, they were further diluted in saline solution to achieve the desired concentration of 10 cysts per animal. Subsequently, the mice in the experiment were infected with these freshly obtained brain cysts via intraperitoneal injection. The animals were considered chronically infected 40 days post-infection, according to the protocol described by. […] Additionally, the presence of brain cysts, known to be responsible for the observed symptoms, further confirmed the chronic infection status.
# Forty days after infection, chronically infected mice were randomly assigned into experimental groups (n = 4 per group). […] On day 51 post-infection, all animals were euthanized, and their brains were collected for analyses. The brains were used for microscopic counting of cysts, measurement of cysts area, RNA extraction, and quantification. For microscopic counting, 25 μL of macerated organ was utilized, while 200 μL was used for RNA extraction. Cysts area was measured using ImageJ software, available at https://imagej.nih.gov/ij/.
# We performed a serial dilution of cultured tachyzoites of T. gondii (RH strain), ranging from 5×10^6 to 7.8×10^4 forms per mL. DNA samples were extracted from each point of the serial dilution (in duplicate samples), and real-time PCR was performed. The resulting data were used to plot the cycle threshold value (CT) against varying amounts of parasites, ultimately generating a standard curve. […]
# Each DNA and cDNA samples were analysed by quantitative real-time PCR using the set of primers Rep529, which amplified a T. gondii repetitive DNA fragment. […]
compound,measurement,setting,value
C=CCNc1nc(NCC=C)nc(N2CCN(C(c3ccc(F)cc3)c3ccc(F)cc3)CC2)n1 [almitrine bismesylate],LD50,mice,> 200 mg/kg
same,parasite burden in the brains (real-time PCR),"T. gondii (ME49 strain); 25 mg/kg/day oral for 10 days, RNA of living parasites by qPCR, vs vehicle control group",statistically significant (p < 0.001) reduction
same,cysts area,"T. gondii (ME49 strain); 12.5 and 25 mg/kg/day oral for 10 days from day 40 post-infection, microscopy of brain macerates, ImageJ, vs vehicle",significant reduction (p < 0.05)
same,number of brain cysts,"T. gondii (ME49 strain); 12.5 and 25 mg/kg/day oral for 10 days from day 40 post-infection, microscopy of brain macerates, vs vehicle",significant reduction (p < 0.05)
